Measurements published in patent US7964376B2, “Chimeric proteins and their use in methods to screen for sweet taste modulators” (Givaudan SA, priority 2006, dated 2011).
Residues, ends and D or L forms follow the SMILES beside them.

Assays:
hCaSR = target: T1, hCaSR (Homo sapiens, UniProt P41180); assay: Fluo-4 calcium assay, transiently transfected HEK293T/Gα16-gustducin 44 cells (Example 6a); format: cell-based; details: for hCaSR AVG (net increase in fluorescence over baseline): mean of six replicates, Calcium Chloride (2 mM), Sucralose (0.5 mM), aspartame (0.85 mM), perillartine (50 μM), cinnamonitrile (100 EM), cyclamate (1 mM), NDHC (0.33 mM)
T1 sequence (P41180 20-1078): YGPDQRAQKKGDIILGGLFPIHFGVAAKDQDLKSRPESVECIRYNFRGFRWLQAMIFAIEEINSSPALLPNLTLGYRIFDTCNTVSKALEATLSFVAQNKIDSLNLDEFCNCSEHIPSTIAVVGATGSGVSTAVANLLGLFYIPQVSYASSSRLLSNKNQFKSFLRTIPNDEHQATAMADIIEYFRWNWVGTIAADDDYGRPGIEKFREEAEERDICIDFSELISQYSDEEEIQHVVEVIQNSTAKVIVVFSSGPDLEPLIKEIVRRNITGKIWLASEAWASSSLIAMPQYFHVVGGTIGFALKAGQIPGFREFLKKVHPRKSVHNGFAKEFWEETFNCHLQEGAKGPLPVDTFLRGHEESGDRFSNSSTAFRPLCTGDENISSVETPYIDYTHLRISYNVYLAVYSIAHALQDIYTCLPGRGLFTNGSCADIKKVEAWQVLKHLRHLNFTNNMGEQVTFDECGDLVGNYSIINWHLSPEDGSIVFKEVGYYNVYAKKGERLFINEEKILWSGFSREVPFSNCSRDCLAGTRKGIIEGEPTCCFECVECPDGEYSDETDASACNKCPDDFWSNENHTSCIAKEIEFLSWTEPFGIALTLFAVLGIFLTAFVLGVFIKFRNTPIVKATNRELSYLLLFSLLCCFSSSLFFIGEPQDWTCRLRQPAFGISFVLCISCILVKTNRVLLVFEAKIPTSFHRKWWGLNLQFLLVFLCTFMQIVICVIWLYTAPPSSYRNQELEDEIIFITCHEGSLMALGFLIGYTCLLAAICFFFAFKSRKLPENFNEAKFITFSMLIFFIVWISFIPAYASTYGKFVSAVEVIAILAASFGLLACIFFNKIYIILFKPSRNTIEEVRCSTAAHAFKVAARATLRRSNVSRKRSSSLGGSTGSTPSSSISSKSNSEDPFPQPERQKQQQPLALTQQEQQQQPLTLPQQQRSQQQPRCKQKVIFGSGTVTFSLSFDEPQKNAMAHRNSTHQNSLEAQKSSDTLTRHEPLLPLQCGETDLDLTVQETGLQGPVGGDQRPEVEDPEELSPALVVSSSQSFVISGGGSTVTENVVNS
Text: The hCaSR vector is used as positive control for a GPCR that is sensitive to calcium, as it is sensitive to calcium and the calcium binding site lies in the VFT of this receptor, which is where the VFT for the chimera is derived from.
(§1) The following ligands were used for to stimulate the transfected cells in the concentrations as indicated in brackets: […]

[1] = target: T2, T1R2/T1R3 sweet heterodimer (Homo sapiens, UniProt Q7RTX0+Q8TE23, C757R); assay: Fluo-4 calcium assay, transiently transfected HEK293T/Gα16-gustducin 44 cells (Examples 6a, 6b); format: cell-based; details: Example 6b; mean of six replicates; Calcium Chloride (2 mM), Sucralose (0.5 mM), perillartine (50 μM)
T2 construct: expressed in transfected cells; host or cells: HEK293T cells stably expressing Ga16-gustducin 44, transient co-transfection of pcDNA3.1 constructs
T2 sequence (Q8TE23 20-839): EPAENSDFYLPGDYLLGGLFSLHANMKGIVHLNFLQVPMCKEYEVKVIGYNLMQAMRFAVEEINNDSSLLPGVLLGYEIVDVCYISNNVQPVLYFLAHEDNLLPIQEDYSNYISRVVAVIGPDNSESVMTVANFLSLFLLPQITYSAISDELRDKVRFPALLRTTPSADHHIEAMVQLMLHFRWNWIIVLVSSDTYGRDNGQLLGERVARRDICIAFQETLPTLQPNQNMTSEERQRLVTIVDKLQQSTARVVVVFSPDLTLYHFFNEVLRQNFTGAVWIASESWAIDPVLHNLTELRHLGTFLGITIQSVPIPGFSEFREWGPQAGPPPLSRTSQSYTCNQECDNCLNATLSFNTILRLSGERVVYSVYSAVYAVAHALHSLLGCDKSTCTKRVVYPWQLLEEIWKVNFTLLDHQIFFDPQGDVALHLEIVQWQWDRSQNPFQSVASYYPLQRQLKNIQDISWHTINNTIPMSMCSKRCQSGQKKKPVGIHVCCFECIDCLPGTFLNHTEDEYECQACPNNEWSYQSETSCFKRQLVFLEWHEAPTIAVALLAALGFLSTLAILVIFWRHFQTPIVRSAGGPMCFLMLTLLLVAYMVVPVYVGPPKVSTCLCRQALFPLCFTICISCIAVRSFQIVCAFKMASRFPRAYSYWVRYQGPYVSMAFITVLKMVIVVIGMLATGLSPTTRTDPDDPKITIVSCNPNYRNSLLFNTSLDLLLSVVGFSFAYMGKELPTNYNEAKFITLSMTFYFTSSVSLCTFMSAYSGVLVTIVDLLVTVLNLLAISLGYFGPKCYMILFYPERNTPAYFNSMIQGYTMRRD
T2 sequence (Q7RTX0 21-852 C757R): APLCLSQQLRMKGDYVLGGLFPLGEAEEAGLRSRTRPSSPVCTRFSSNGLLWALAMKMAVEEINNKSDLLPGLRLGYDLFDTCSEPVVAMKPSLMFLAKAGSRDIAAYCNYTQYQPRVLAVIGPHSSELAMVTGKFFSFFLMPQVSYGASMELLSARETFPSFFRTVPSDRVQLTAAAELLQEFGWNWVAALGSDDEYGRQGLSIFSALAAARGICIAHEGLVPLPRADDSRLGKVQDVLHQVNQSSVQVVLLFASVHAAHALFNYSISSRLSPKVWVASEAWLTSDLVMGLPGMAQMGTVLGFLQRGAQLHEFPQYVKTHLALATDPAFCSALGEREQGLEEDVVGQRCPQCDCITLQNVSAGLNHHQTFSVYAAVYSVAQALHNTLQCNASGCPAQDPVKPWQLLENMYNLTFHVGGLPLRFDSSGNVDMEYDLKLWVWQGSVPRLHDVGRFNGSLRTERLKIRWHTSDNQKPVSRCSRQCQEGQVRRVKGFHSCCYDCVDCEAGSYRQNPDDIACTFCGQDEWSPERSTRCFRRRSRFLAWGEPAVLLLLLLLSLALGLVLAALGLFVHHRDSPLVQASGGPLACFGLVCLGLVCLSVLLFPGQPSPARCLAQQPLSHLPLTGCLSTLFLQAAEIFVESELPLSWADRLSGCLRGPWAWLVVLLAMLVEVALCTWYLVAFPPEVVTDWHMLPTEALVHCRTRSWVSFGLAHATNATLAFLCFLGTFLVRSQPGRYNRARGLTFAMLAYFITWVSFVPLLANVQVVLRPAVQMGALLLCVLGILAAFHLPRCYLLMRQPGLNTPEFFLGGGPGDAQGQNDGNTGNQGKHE
Text: as §1

[2] = test system: Mock transfected HEK293T/Gα16-gustducin 44 cells; assay: Fluo-4 calcium assay, negative control mock transfection (Examples 6a, 6b); format: cell-based, human; details: mean of six replicates, Calcium Chloride (2 mM), Sucralose (0.5 mM), perillartine (50 μM); for Neg. control (mock transfection) AVG (net increase in fluorescence over baseline): Example 6a, aspartame (0.85 mM), cinnamonitrile (100 EM), cyclamate (1 mM), NDHC (0.33 mM); for Neg. control (mock transfection) AVG (mean ΔF/F): Example 6b
Text: as §1

[3] = target: T3, CSR::T1R2-b/CSR::T1R3-b chimeric heterodimer (Homo sapiens, UniProt P41180+Q7RTX0+Q8TE23); assay: Fluo-4 calcium assay, transiently transfected HEK293T/Gα16-gustducin 44 cells (Example 6b); details: mean of six replicates; Calcium Chloride (2 mM), Sucralose (0.5 mM), perillartine (50 μM)
T3 sequence (P41180+Q8TE23 with tags, fused parts or gaps): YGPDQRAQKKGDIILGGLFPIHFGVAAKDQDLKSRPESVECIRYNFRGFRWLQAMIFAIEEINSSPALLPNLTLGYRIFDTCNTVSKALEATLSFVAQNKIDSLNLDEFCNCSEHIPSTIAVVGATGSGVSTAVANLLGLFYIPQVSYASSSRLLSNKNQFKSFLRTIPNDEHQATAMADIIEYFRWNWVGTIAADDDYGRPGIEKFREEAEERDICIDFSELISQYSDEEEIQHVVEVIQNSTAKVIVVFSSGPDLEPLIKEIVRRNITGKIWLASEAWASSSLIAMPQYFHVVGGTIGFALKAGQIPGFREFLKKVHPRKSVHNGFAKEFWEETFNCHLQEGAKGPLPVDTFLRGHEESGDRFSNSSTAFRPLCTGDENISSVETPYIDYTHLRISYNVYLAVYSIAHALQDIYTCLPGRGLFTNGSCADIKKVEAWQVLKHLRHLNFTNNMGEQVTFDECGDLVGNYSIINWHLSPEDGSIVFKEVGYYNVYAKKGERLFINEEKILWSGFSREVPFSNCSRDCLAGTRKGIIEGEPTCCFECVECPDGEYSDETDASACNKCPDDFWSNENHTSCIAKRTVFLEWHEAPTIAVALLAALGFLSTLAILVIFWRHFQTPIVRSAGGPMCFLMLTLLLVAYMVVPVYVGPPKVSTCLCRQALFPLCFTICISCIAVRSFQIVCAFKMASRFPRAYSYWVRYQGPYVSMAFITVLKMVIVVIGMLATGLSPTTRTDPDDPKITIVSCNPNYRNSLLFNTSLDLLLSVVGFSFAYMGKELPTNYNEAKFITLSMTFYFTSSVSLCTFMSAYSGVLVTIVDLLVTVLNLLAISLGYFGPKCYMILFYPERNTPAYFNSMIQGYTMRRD
T3 sequence (P41180+Q7RTX0 with tags, fused parts or gaps): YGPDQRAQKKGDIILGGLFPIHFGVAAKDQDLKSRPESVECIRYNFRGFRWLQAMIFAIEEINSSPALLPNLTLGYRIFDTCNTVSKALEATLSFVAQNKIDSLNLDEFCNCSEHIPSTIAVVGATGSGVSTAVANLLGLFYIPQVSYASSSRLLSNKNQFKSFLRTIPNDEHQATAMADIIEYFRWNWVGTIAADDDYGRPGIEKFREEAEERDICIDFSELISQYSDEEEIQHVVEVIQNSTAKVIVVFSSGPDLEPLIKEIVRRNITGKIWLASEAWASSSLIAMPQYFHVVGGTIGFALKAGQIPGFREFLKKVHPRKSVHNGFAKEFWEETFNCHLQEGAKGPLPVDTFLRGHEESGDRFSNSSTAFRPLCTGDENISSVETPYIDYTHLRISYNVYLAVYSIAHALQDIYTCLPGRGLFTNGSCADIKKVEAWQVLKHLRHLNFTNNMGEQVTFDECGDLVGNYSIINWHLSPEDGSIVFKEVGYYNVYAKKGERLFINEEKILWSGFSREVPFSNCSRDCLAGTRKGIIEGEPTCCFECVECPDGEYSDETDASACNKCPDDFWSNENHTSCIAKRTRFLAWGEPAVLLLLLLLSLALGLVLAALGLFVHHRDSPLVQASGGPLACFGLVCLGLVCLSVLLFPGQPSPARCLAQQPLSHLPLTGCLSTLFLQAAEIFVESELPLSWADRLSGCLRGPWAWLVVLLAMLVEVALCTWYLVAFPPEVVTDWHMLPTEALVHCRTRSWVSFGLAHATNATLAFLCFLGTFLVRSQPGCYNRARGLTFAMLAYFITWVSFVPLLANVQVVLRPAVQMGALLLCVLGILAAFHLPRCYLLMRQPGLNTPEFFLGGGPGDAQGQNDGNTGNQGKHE
Method: (§2) Fluo-4 is a fluorescent indicator for intracellular calcium and allows to determine changes in the calcium concentration, in particular an increase in response to receptor activation occurring after ligand addition.
(§3) Black, clear-bottom 96-well plates were used for all assays. They were seeded the day before with 8500 transfected cells per well and maintained at 37° C. overnight in an a growth medium appropriate for the cells used. For HEK293 cells, Dulbecco's Modified Eagle medium containing high glucose, L-glutamine, pyroxidine hydrochloride, and supplemented with 10% fetal bovine serum was used for growth and maintenance of the HEK293 cells.
(§4) After the initial 1 hour loading period, the plates were washed 5 times with 100 μl per well of reduced calcium C1 buffer using an automated plate washer (BioTek) and after washing, the plate was further incubated for 30 minutes at room temperature in the dark to allow for complete de-esterification of the Fluo-4-AM. The buffer solutions were discarded, the plate was washed 5 times with 100 μl reduced calcium C1 wash buffer and finally the cells were reconstituted in 180 μl of reduced calcium C1 wash buffer.
(§5) For assay reading, the plate was placed in a FLIPR (fluorescence imaging plate reader (FLIPR-Tetra, Molecular Devices)), and receptor activation was initiated following addition of 20 μl of a 10× concentrated ligand stock solution, which were prepared in reduced calcium C1 buffer.
(§6) Receptor activation is given in relative fluorescence units (RFU) and is defined by the following equation: Fluorescence Increase=Maximum Fluorescence−baseline fluorescence, wherein the baseline fluorescence represents the mean fluorescence calculated for the first 10 to 15 seconds prior to ligand addition.
As a negative control, mock transfected cells were exposed to the same concentration of ligand and the concentration of calcium traces not corresponding to a signal was determined. […]
(§7) The calcium mobilization signals obtained are increase in peak fluorescence (F) normalized to the baseline fluorescence (F0). […]

CSR::T1R2-b homomer = target: T4, CSR::T1R2-b homomer (Homo sapiens, UniProt P41180+Q8TE23); assay: as above; details: mean of six replicates; Calcium Chloride (2 mM), Sucralose (0.5 mM), perillartine (50 μM)
T4 sequence (P41180+Q8TE23 with tags, fused parts or gaps): T3 sequence (P41180+Q8TE23 with tags, fused parts or gaps)
Method: as §2, §3, §4, §5, §6
As a negative control, mock transfected cells were exposed to the same concentration of ligand and the concentration of calcium traces not corresponding to a signal was determined.
as §7

| Compound | hCaSR AVG (net increase in fluorescence over baseline) (hCaSR) | T1R2/T1R3 AVG (mean ΔF/F) [1] | Neg. control (mock transfection) AVG (net increase in fluorescence over baseline) [2] | Neg. control (mock transfection) AVG (mean ΔF/F) [2] | CSR::T1R2-b/CSR::T1R3-b AVG (mean ΔF/F) [3] | CSR::R2-b alone AVG (mean ΔF/F) (CSR::T1R2-b homomer) | response of hCaSR (in words) (hCaSR; Example 6a) |
| --- | --- | --- | --- | --- | --- | --- | --- |
| N#CC=Cc1ccccc1 [Cinnamonitrile] | 197 RFU |  |  |  |  |  |  |
| C=C(C)[C@@H]1CC=C(/C=N/O)CC1 [Perillartine] | 73 RFU | 0.5 ΔF/F | −379 RFU | 0.06 ΔF/F | 0.169 ΔF/F | 0.11 ΔF/F |  |
| COC(=O)[C@H](Cc1ccccc1)NC(=O)[C@@H](N)CC(=O)O [Aspartame] (H-Asp-Phe-OMe) | 41 RFU |  | −125 RFU |  |  |  |  |
| OC[C@H]1O[C@H](O[C@]2(CCl)O[C@H](CCl)[C@@H](O)[C@@H]2O)[C@H](O)[C@@H](O)[C@H]1Cl [Sucralose] | 22 RFU | 0.12 ΔF/F |  | 0.03 ΔF/F | 0.017 ΔF/F | 0.016 ΔF/F |  |
| [Ca+2].[Cl-].[Cl-] [Calcium, Calcium Chloride] | 7610 RFU | 0.19 ΔF/F | 1570 RFU | 0.20 ΔF/F | 0.46 ΔF/F | 0.424 ΔF/F | responded |
